Experimental data reported in patent US20260191933A1, “PHARMACEUTICAL COMBINATIONS AND USES THEREOF” (The University of Melbourne, priority 2022, published 2026).

Tests used:
chondroitin 4-sulfate = assay: CSPG-ECM binding assay, chondroitin 4-sulfate; details: plates coated with chondroitin 4-sulfate (C4S), 2-hours
Procedure: (§1) To determine the interaction of insulin with CSPG-ECM components in vitro, flat-bottom 96-well plates were first coated with 10 μg/ml poly-L-lysine overnight, followed by a rinsing with water. A purified CSPGs mix containing neurocan, phosphacan, versican and aggrecan (CC117, Merck Millipore, MA), purified aggrecan (A1960, Merck Millipore, MA) or purified chondroitin 4-sulfate (59004, Selleck Chemicals, TX), were coated onto the 96-well plates at a concentration of 10 μg/ml for 4 h at RT, followed by a rinse with water. Insulin-FITC was incubated on plates containing ECM at concentrating ranging from 5 ng/ml-1 mg/ml for 2 h at RT and protected from light. Control wells contained either no ECM, bovine serum albumin (10 μg/ml) or poly-L-lysine alone. Wells were washed 3 times with water and imaged at 495 nm using a SPECTROstar Nano Microplate Reader (BMG Labtech, Germany). To digest CSPG-ECM or to negate CSPG-ECM negative charge. wells were incubated with either chABC (0.5 U/ml) or poly-1-arginine (10 μg/ml, P7762, Merck Millipore, MA) for 1 h at 37° C. after the ECM coating, washed 3 times with water and then incubated with insulin-FITC.

[1] = system: mixed CSPGs (aggrecan, neurocan, phosphacan and versican); assay: CSPG-ECM binding assay, mixed CSPGs
Procedure: as §1

aggrecan = target: T1, aggrecan (Bos taurus, UniProt P13608); assay: CSPG-ECM binding assay, aggrecan; details: plates coated with aggrecan, 2-hours
T1 construct: purchased Merck Millipore A1960
T1 sequence (P13608 17-2364): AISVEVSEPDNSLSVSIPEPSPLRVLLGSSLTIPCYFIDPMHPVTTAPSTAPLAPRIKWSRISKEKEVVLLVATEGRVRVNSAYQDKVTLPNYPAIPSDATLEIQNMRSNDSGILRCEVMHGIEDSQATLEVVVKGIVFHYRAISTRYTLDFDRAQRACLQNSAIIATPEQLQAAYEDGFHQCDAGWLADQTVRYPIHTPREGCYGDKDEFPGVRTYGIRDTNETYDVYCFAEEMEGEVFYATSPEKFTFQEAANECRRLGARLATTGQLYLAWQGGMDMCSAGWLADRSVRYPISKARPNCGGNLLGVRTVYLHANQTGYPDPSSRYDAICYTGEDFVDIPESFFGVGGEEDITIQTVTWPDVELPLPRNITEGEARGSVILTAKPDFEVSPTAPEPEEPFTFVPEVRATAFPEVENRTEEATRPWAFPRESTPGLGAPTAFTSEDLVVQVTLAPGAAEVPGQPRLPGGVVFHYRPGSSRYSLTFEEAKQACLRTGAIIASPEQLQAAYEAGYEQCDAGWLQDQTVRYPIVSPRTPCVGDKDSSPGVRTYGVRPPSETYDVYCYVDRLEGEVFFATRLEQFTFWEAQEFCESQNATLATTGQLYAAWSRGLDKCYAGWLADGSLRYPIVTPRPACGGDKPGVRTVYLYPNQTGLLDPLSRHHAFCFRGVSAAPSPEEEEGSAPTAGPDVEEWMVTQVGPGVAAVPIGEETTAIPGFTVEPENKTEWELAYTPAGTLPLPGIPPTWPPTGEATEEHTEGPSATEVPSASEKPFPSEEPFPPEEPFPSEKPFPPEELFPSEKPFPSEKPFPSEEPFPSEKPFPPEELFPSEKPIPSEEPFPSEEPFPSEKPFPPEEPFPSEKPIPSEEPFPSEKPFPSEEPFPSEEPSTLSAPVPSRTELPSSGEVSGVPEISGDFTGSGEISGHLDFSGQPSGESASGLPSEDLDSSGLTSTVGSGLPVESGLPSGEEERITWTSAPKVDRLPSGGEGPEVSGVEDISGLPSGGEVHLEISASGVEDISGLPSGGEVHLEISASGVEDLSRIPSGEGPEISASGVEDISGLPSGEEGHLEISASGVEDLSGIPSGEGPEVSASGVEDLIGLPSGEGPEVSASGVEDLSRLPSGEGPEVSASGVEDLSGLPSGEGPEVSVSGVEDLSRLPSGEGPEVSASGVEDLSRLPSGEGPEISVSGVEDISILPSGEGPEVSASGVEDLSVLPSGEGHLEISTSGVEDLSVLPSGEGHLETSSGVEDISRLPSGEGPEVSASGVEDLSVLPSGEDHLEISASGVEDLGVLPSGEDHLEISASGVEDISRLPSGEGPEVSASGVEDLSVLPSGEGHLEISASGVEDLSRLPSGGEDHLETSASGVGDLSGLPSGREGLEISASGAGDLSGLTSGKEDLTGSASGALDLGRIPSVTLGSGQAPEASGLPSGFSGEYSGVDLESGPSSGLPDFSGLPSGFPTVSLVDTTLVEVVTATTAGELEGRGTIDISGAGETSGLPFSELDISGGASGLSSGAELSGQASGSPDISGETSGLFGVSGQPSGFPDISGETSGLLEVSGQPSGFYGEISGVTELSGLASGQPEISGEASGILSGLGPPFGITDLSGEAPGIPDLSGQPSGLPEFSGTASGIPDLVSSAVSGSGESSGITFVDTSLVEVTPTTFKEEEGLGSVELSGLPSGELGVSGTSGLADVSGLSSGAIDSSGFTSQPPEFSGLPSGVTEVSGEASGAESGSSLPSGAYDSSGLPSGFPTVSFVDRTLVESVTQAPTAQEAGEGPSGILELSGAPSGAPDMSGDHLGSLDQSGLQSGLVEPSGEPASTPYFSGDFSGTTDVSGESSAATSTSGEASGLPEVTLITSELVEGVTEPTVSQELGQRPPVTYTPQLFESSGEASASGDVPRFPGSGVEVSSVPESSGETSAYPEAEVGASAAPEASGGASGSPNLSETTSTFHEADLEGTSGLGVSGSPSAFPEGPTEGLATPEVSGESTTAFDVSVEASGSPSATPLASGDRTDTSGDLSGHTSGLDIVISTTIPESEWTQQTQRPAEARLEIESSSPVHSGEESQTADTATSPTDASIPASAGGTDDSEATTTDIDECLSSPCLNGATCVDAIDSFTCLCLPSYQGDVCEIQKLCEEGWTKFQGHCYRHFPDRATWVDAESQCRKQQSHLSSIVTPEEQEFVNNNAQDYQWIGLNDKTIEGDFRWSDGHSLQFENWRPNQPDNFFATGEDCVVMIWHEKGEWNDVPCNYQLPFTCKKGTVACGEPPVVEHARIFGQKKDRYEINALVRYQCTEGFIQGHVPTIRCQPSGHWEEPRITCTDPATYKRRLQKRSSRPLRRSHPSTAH
Procedure: as §1

Row | binding of insulin-FITC (chondroitin 4-sulfate) | binding of insulin-FITC ([1]; plates coated with mixed CSPGs, 2-hours) | binding of insulin-FITC (aggrecan) | insulin-ECM interactions ([1]; CSPG mix, in the presence of poly-arginine) | Substance
1 | specific dose-dependent binding | specific dose-dependent binding | specific dose-dependent binding | – | insulin-FITC: fluorescein isothiocyanate tagged insulin
2 | – | – | – | significantly reduced | poly-arginine
